Experimental data: patent US12319672B2, “Alpha-D-galactopyranoside derivatives” (Idorsia Pharmaceuticals Ltd, priority 2019, dated 2025)

Columns and labels:
human Gal-3 (hGal-3) = human Gal-3 (hGal-3) (Homo sapiens (Human), UniProt P17931); test: Competitive binding assay: binding of biotinylated hGal-3 to microplate-adsorbed asialofetuin (ASF); settings: Activity on hGal-3; mean values of several measurements
Outline: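 Biotinylated hGal-3 (300-1000 ng/mL) bound to ASF-coated wells with serially diluted compound, 3 h at 4° C. After washing, bound protein was detected with streptavidin-peroxidase (80 ng/mL, 1 h, 4° C) and ABTS substrate; IC50 values are means of several measurements.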

human Gal-1 (hGal-1) [1] = target: human Gal-1 (hGal-1) (Homo sapiens, UniProt P09382); test: Competitive binding assay: binding of biotinylated hGal-1 to microplate-adsorbed asialofetuin (ASF); settings: Activities on hGal-1; mean values of several measurements
human Gal-1 (hGal-1) (Homo sapiens, UniProt P09382), sequence (P09382 2-135 limits assumed): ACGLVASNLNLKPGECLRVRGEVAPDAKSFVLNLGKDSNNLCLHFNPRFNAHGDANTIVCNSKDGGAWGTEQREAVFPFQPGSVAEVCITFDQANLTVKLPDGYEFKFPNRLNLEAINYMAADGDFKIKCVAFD
human Gal-1 (hGal-1), sequence (P09382 2-135 limits assumed): as above
Outline: (§1)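 Biotin-hGal-3/hGal-1 300-1000 ng/mL + cpd (DMSO dilutions) on ASF-coated plate, 3 h 4° C; wash; SA-HRP 80 ng/mL 1 h 4° C; wash; ABTS. IC50 = mean of several runs. hGal-1 preferably Cys→Ser (all six) mutant.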

human Gal-1 (hGal-1) [2] = test: as above; settings: Activities on hGal-1; mean values of several measurements
Outline: as §1

human Gal-3 (hGal-3), sequence (P17931 whole entry): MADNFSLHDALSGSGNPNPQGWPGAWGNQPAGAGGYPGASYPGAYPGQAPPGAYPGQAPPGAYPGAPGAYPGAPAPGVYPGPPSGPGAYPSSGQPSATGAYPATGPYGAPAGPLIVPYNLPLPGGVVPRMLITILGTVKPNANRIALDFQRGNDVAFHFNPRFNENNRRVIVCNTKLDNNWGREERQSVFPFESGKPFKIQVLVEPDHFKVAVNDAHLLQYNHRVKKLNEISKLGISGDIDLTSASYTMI

IC50 (human Gal-1 (hGal-1) [2]) [nM]	SMILES	IC50 (human Gal-3 (hGal-3)) [nM]	IC50 (human Gal-1 (hGal-1) [1]) [nM]
–	CC(C)(C)OC(=O)N1CCC(c2cc(C[C@H]3O[C@H](CO)[C@H](O)[C@H](n4cc(-c5cc(F)c(F)c(F)c5)nn4)[C@H]3OCC(F)F)no2)CC1 [Example 2.25, tert-butyl 4-(3-(((2R,3R,4S,5R,6R)-3-(2,2-difluoroethoxy)-5-hydroxy-6-(hydroxymethyl)-4-(4-(3,4,5-trifluorophenyl)-1H-1,2,3-triazol-1-yl)tetrahydro-2H-pyran-2-yl)methyl)issoxazole-5-yl)piperidine-1-carboxylate]	170	1280
5080	O=c1ccc(C2=NOC(C[C@H]3O[C@H](CO)[C@H](O)[C@H](n4cc(-c5cc(F)c(F)c(F)c5)nn4)[C@H]3O)C2)c[nH]1 (mixture of isomers) [Example 2.02]	250	–
